Results taken from publication PMC10094418, “Butein Inhibits Cell Growth by Blocking the IL-6/IL-6Rα Interaction in Human Ovarian Cancer and by Regulation of the IL-6/STAT3/FoxO3a Pathway” (International Journal of Molecular Sciences, 2023).

Assays:
[1] = system: IL-6 signaling in HEK-Blue™ IL-6 cells; assay: IL-6 inhibitory bioassay with HEK-Blue IL-6 cells (SEAP activity); format: cell-based, human; details: 10 ng/mL IL-6, 24 h
Method: HEK-Blue™ IL-6 cells were obtained from InvivoGen (San Diego, CA, USA). In a 96-well plate, 20 μL butein at various concentrations (0, 3.125, 6.25, 12.5, 25, and 50 μM) were added to the cell suspension (50,000 cells/200 μL). Following this, the recombinant human IL-6 (BioLegend, San Diego, CA, USA) was administered at 10 ng/mL. After 24 h, 20 μL of the IL-6-treated cell suspension was added to 180 μL of QUANTI-Blue™ Solution (JnvivoGen, San Diego, CA, USA) in a new 96-well plate. After 2 h of incubation at 37 °C, the spectrophotometric absorbance between 620 and 655 nm was recorded.

A2780 cells [2] = assay: Flow cytometric cell cycle analysis (PI), A2780; format: cell-based, human; details: 25 μM; 45.3% under control conditions
Method: (§1) A2780 and SKOV3 cell lines were treated with control (siltuximab 10 μM) and butein (5, 10, and 25 μM). After 6 h, the cells were fixed with 70% ethanol for cell cycle analysis and stained with propidium iodide (PI). Cell death was analyzed using the FITC Annexin V Apoptosis Detection kit with 7-AAD (Cat.no. 640922, BioLegend, San Diego, CA, USA). Cells were sorted using a FACS Canto II (BD Biosciences, Franklin Lakes, NJ, USA) and cell cycle and apoptosis were analyzed using BD FACS Diva software version 6. 2. Analysis (BD Biosciences, Franklin Lakes, NJ, USA) was performed in triplicate.

A2780 cells [3] = assay: Clonogenic formation assay, A2780; format: cell-based, human; details: compared with control siltuximab-treated cells
Method: A2780 and SKOV3 cell lines were seeded at approximately 5000 cells/well in 24-well plates. Butein was added to the cell medium at various concentrations (5, 10, and 25 μM) together with control siltuximab (CTNO328; EUSA Pharma, Inc., Hemel Hempstead, UK) for 12 h. After 2 weeks, the colonies formed were fixed with fixer buffer, stained with crystal violet, and imaged with a ChemiDoc imaging system (Bio-Rad, Herles, CA, USA).

A2780 cells [4] = assay: Cell viability by MTT assay, A2780; format: cell-based; details: Homo sapiens, 48 h
Method: A2780 and SKOV3 cell lines were purchased from the European Collection of Cell Cultures (ECACC, London, UK) and Korean Cell Line Bank (KCLB, Seoul, Republic of Korea) respectively. Each cell line was seeded in a 96-well plate at an appropriate cell number (3000 cells/100 μL in each well). After 24 h, butein was added to the plates at each of the following concentrations, 0, 3.125, 6.25, 12.5, 25, and 50 μM, in triplicate in the presence of serum medium. After 48 h, 100 μL of […] (Sigma-Aldrich, St. Louis, MO, USA) solubilizing solution was added to each well and incubated for 4 h. The solution was then aspirated, and 100 μL of DMSO was added for cell lysis. The spectrophotometric absorbance was measured at 540 nm. Half of the maximum inhibitory concentration (IC50) was determined using GraphPad Prism software (version 7.0).

gp130 = molecular target: T1, gp130 (Homo sapiens, UniProt P40189); assay: Surface plasmon resonance, immobilized gp130; format: binding; details: SPR, CM5 chip, steady-state KD
T1 construct: purchased Sino Biological or ANRT
T1 sequence (P40189 23-918): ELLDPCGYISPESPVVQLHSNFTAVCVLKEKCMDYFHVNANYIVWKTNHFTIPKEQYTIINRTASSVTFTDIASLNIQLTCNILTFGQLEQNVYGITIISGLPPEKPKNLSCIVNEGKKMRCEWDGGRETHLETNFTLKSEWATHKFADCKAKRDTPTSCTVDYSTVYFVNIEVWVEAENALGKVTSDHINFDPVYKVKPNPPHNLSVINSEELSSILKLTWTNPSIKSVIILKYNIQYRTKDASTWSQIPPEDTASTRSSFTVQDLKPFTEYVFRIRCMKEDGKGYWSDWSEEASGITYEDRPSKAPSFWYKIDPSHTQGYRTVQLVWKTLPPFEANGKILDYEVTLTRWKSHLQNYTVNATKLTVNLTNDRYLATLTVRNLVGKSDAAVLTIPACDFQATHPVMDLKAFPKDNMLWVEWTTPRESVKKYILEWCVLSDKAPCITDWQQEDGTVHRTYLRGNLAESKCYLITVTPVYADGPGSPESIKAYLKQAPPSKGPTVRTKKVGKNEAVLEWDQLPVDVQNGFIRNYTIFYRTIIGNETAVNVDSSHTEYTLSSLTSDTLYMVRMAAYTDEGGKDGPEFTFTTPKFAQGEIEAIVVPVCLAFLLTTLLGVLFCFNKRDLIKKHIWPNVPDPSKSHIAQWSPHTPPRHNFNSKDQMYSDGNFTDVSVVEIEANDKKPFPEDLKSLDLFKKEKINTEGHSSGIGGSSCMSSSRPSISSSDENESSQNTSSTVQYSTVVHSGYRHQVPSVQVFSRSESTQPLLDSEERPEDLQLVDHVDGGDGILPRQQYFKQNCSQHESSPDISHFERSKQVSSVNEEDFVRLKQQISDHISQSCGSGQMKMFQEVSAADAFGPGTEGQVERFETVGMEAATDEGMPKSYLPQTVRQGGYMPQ
Method: (§2) The surface plasmon resonance (SPR) assay was measured using the BIAcore T200 model (GE Healthcare, Chicago, IL, USA) with HBS-EP buffer (1×HBS-EP, GE Healthcare, Chicago, IL, USA) containing 5% dimethyl sulfoxide (DMSO; Sigma-Aldrich, St. Louis, MO, USA). The pH scouting for IL-6 (PeproTech, Rocky Hill, NJ, USA), IL-6Rα (PeproTech, Rocky Hill, NJ, USA), and gp130 (Sino Biological, Beijing, China, or ANRT, Daejeon, Korea) immobilization was performed in 10 mM acetate buffer at pH 4.5. IL-6, IL-6Rα, and gp130 were immobilized on a CM5 chip at 750, 1200, and 2000 response units (RU). Butein was injected into the IL-6, IL-6Rα and gp130-immobilized flow cell at concentrations of 10, 20, 30, 40, 50, 60, 70, 80, 90, and 100 μM with a 25 μL/min flow rate for 150 s and allowed to dissociate for 300 s. Steady-state KD was determined via the T-200 BIAevaluation software (GE Healthcare, Chicago, IL, USA).

SKOV3 cells = assay: Flow cytometric cell cycle analysis (PI), SKOV3; format: cell-based, human; details: butein treatment; 58.3% under control conditions
Method: as §1

IL-6 = molecular target: T2, IL-6 (Homo sapiens, UniProt P05231); assay: Surface plasmon resonance, immobilized IL-6; format: binding; details: SPR, CM5 chip, steady-state KD
T2 construct: purchased PeproTech
Method: as §2

T2 sequence (P05231 30-212): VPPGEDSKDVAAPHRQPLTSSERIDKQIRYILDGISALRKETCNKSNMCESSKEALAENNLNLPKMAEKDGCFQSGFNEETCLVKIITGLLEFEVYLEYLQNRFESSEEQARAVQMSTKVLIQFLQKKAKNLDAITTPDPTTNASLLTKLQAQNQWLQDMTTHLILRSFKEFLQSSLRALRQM

Q: How did the “Inhibition of SEAP signal of HEK-Blue IL-6” value ([1]; 0-50 μM) turn out when `O=C(/C=C/c1ccc(O)c(O)c1)c1ccc(O)cc1O` [butein] was run?
A: Its value is “maximum inhibition”.

Q: And the “LogIC50, HEK-Blue IL-6 SEAP activity” value [1]?
A: Its value is 1.049±0.524 μM.

Q: And the IC50 ([1]; Homo sapiens, HEK-Blue IL-6)?
A: The IC50 was 12.9 ± 0.15 µM.

Q: What about the “A2780 cells in G1-phase” value (A2780 cells [2]) of the same compound?
A: Its value is 55.9%.

Q: And the “Clonogenicity, A2780” value (A2780 cells [3])?
A: Its value is “significantly inhibited”.

Q: What about the IC50 (A2780 cells [4]) of the same compound?
A: The IC50 was 64.7 ± 6.27 µM.

Q: And the Kd (gp130)?
A: Its Kd is 616 µM.

Q: What about the “SKOV3 cells in G1-phase” value (SKOV3 cells) of the same compound?
A: Its value is 65.8%.

Q: And the Kd (IL-6)?
A: The Kd was 91.4 µM.
